Experimental data published in patent US20090170812A1, “Transcription factor modulating compounds and methods of use thereof” (priority 2006, published 2009).

Assays:
LcrF (VirF) = LcrF (VirF) (Yersinia pestis, UniProt P28808); assay: biochemical; format: binding, Y. pseudotuberculosis
ExsA = target: T1, ExsA (Pseudomonas aeruginosa, UniProt P26993); assay: In vitro activity of Mar inhibitors against ExsA: cell-free DNA binding assay; details: purified ExsA from P. aeruginosa, inhibition of DNA binding in vitro
T1 construct: made in house
T1 sequence (P26993 1-278): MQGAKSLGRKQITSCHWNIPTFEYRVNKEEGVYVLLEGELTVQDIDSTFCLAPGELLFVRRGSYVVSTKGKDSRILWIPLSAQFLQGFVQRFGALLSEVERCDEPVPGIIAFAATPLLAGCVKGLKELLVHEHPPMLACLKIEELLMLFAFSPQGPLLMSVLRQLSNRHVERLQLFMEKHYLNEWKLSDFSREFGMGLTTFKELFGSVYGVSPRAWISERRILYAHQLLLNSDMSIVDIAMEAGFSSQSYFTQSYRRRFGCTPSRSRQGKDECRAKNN

[1] = tested on: Yersinia pseudotuberculosis
P. aeruginosa = assay: Whole cell assay: cytotoxicity of P. aeruginosa toward J774 cells (CytoTox 96, LDH release); details: percent cytotoxicity of treated P. aeruginosa toward J774 cells

Sequence of LcrF (VirF) (P28808 whole entry, looked up): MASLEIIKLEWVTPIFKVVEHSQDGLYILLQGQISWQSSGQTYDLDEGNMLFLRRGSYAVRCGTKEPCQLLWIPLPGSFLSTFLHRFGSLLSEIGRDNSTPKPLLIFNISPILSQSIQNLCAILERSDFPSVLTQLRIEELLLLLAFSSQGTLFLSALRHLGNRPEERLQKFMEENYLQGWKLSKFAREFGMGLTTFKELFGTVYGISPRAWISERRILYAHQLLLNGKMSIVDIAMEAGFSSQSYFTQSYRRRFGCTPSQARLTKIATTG

| SMILES | EC50 (LcrF (VirF)) | EC50 (ExsA) | Cytotoxicity at 50 μg/mL Yersinia [1] | Cytotoxicity at 50 μg/mL Pseudomonas (P. aeruginosa) |
| --- | --- | --- | --- | --- |
| O=C(Nc1ccc(-c2nc3ccc([N+](=O)[O-])cc3n2O)c(F)c1)c1ccc(F)cc1 [AH] | 10.1 to 25 µM | 10.1 to 25 µM | * (key: *: percent cytotoxicity above 75% at 50 μg/mL; **: cytotoxicities below 75% at 50 μg/mL) | * (percent cytotoxicities above 75% at 50 mg/mL) |
| Cc1cc2nc(-c3ccc(NC(=O)c4ccc(-c5cnco5)cc4)cc3)n(O)c2cc1[N+](=O)[O-] [Compound BL, N-[4-(1-Hydroxy-5-methyl-6-nitro-1H-benzoimidazol-2-yl)-phenyl]-4-oxazol-5-yl-benzamide] | > 25.1 µM | < 10 µM | ** (key: *: percent cytotoxicity above 75% at 50 μg/mL; **: cytotoxicities below 75% at 50 μg/mL) | ** (cytotoxicities below 75% at 50 mg/mL) |
| CCOc1cc2nc(-c3ccc(NC(=O)/C=C/c4ccc(F)cc4)cc3)n(O)c2cc1[N+](=O)[O-] [Compound BJ, (E)-N-[4-(5-Ethoxy-1-hydroxy-6-nitro-1H-benzoimidazol-2-yl)-phenyl]-3-(4-fluoro-phenyl)-acrylamide] | 10.1 to 25 µM | < 10 µM | ** (key: *: percent cytotoxicity above 75% at 50 μg/mL; **: cytotoxicities below 75% at 50 μg/mL) | ** (cytotoxicities below 75% at 50 mg/mL) |
| N#Cc1ccc2nc(-c3ccc(NC(=O)/C=C/c4ccccc4)cc3)n(O)c2c1 [Compound A] | 10.1 to 25 µM | 10.1 to 25 µM | * (key: *: percent cytotoxicity above 75% at 50 μg/mL; **: cytotoxicities below 75% at 50 μg/mL) | * (percent cytotoxicities above 75% at 50 mg/mL) |
| O=C(Nc1ccc(-c2nc3ccc([N+](=O)[O-])cc3n2O)cc1)C1=Cc2ccccc2OC1 [BM] | 10.1 to 25 µM | 10.1 to 25 µM | * (key: *: percent cytotoxicity above 75% at 50 μg/mL; **: cytotoxicities below 75% at 50 μg/mL) | * (percent cytotoxicities above 75% at 50 mg/mL) |
| CC(=O)c1ccc(C(=O)Nc2ccc(-c3nc4ccc(C#N)cc4n3O)cc2)cc1 [Compound C] | > 25.1 µM | < 10 µM | ** (key: *: percent cytotoxicity above 75% at 50 μg/mL; **: cytotoxicities below 75% at 50 μg/mL) | ** (cytotoxicities below 75% at 50 mg/mL) |
| N#Cc1ccc2nc(-c3ccc(NC(=O)/C=C/c4ccc(F)cc4)cc3)n(O)c2c1 [Compound B] | < 10 µM | < 10 µM | ** (key: *: percent cytotoxicity above 75% at 50 μg/mL; **: cytotoxicities below 75% at 50 μg/mL) | ** (cytotoxicities below 75% at 50 mg/mL) |
| O=C(Nc1ccc(-c2nc3ccc([N+](=O)[O-])cc3n2O)cc1)/C(=C/c1ccccc1)c1ccccc1 [F] | < 10 µM | 10.1 to 25 µM | * (key: *: percent cytotoxicity above 75% at 50 μg/mL; **: cytotoxicities below 75% at 50 μg/mL) | ** (cytotoxicities below 75% at 50 mg/mL) |
| CN(C)c1cc2nc(-c3ccc(NC(=O)/C=C/c4ccc(F)cc4)cc3)n(O)c2cc1[N+](=O)[O-] [Compound BN, N-[4-(5-Dimethylamino-1-hydroxy-6-nitro-1H-benzoimidazol-2-yl)-phenyl]-3-(4-fluorocinnamyl)-amide] | > 25.1 µM | 10.1 to 25 µM | ** (key: *: percent cytotoxicity above 75% at 50 μg/mL; **: cytotoxicities below 75% at 50 μg/mL) | ** (cytotoxicities below 75% at 50 mg/mL) |
| COc1cc(F)ccc1C(=O)Nc1ccc(-c2nc3ccc([N+](=O)[O-])cc3n2O)cc1 [T] | < 10 µM | < 10 µM | ** (key: *: percent cytotoxicity above 75% at 50 μg/mL; **: cytotoxicities below 75% at 50 μg/mL) | * (percent cytotoxicities above 75% at 50 mg/mL) |
